In patent US20230391845A1, “GLP-1, GIP AND GLUCAGON RECEPTOR TRIPLE AGONISTS” (priority 2020, published 2023):
*1 amine or outer side, *2 acyl side, *3 side chain or, on linkers, in order; H or OH if unused. Where a SMILES comes first, the peptide text is derived from it. Side-chain parts run from the residue outwards. [ ]: non-standard residue; d: D form. The star is where a group is joined. C20 diacid = O=C(O)CCCCCCCCCCCCCCCCCCC(=O)*; γGlu = O=C(O)[C@H](CCC(=O)[*:2])N[*:1]; εLys = N[C@@H](CCCCN[*:1])C(=O)[*:2]; AEEA = NCCOCCOCC(=O)O; Aib = CC(C)(N)C(=O)O

Experiments:
[1] = target: T1, human GLP-1 receptor (Homo sapiens, UniProt P43220); assay: In vitro functional potency (CRE luciferase; whole cells), human GLP-1R; format: cell-based; conditions: BHK CRE luc2P hGLP-1R whole cells; Table 2; read-out: hGLP-1R CRE Luc EC50
T1 construct: expressed in transfected cells; host or cells: BHK cells (parent line BHKTS13) containing CRE luciferase
T1 sequence (P43220 24-463): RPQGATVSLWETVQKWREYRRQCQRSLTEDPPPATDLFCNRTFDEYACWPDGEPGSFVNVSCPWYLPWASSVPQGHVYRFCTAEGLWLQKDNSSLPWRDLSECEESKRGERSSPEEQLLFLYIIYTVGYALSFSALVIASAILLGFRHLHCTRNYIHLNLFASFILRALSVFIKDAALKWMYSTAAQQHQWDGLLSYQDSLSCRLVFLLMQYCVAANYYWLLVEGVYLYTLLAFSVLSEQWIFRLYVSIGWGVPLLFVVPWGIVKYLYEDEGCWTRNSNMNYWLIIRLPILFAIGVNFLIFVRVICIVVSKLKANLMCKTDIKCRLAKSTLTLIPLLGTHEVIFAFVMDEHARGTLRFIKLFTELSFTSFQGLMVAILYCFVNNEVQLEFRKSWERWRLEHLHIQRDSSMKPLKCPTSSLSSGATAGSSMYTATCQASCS
Method: The purpose of this example is to test the functional activity, or potency, of the compounds in vitro at the human and mouse GLP-1, GIP, and Gcg receptors. The in vitro functional potency is the measure of target receptor activation in a whole cell assay.
In vitro functional potency was determined by measuring the response of the target receptor in a reporter gene assay in individual cell lines. The assay was performed in stably transfected BHK cell lines that expresses one of the following G-protein coupled receptors: human GLP-1 receptor, human GIP receptor, human Gcg receptor, mouse GLP-1 receptor, mouse GIP receptor, or mouse Gcg receptor; and where each cell line contains the DNA for the cAMP response element (CRE) coupled to a promoter and the gene for firefly luciferase (CRE luciferase). When the respective receptor is activated, it results in the production of cAMP, which in turn results in expression of the luciferase protein. When assay incubation is completed, luciferase substrate (luciferin) is added resulting in the enzymatic conversion of luciferin to oxyluciferin and producing bioluminescence. The luminescence is measured as the readout for the assay.
The cells lines used in these assays were BHK cells with BHKTS13 as a parent cell line. The cell lines were derived from a clone containing the CRE luciferase element and were established by further transfection with the respective receptor to obtain the relevant cell line.
The cells were cultured at 37° C. with 5% CO2 in Cell Culture Medium. They were aliquoted and stored in liquid nitrogen. The cells were kept in continuous culture and were seeded out the day before each assay.
GLP-1R and GcgR Cell Culture Medium consisted of DMEM medium with 10% FBS, 500 µg/mL G418, and 300 µg/mL hygromycin. GIPR Cell Culture Medium consisted of DMEM medium with 10% FBS, 400 µg/mL G418, and 300 µg/mL hygromycin. Assay Buffer consisted of DMEM w/o phenol red, 10 mM Hepes, 1× Glutamax, 1% ovalbumin, and 0.1% Pluronic F-68.
• 1) Cells were plated at 5000 cells/well and incubated overnight in the assay plate. • 2) Cells were washed once in DPBS. • 3) Stocks of the test compounds and reference compounds in concentrations ranging from 100-300 pM were diluted 1:150 in Assay Buffer.
The data from the microtiter plate reader was first regressed in an Excel in order to calculate the x-axis, log scale concentrations based on the individual test compound's stock concentration and the dilutions of the assay. […] The software performs a non-linear regression (log(agonist) vs response). A minimum of two replicates was measured for each sample. The reported values are averages of the replicates.

[2] = Pharmacokinetic study in minipigs, i.v. administration; design: species or system Göttingen minipigs; conditions: female, Göttingen, minipig, in vivo, iv
Method: The purpose of this example is to determine the half-life in vivo of the triple agonists as described herein after i.v. administration to minipigs, i.e. the prolongation of their time in the body and thereby their time of action. This is done in a pharmacokinetic (PK) study, where the terminal half-life of the triple agonist in question is determined. By terminal half-life is generally meant the period of time it takes to halve a certain plasma concentration, measured after the initial distribution phase.
Female Göttingen minipigs were obtained from Ellegaard Göttingen Minipigs (Dalmose, Denmark) approximately 7-14 months of age and weighing from approximately 16-35 kg were used in the studies. The minipigs were housed individually and fed restrictedly once daily with SDS minipig diet (Special Diets Services, Essex, UK).
After at 3 weeks of acclimatisation two permanent central venous catheters were implanted in vena cava caudalis in each animal. The animals were allowed 1 week recovery after the surgery, and were then used for repeated pharmacokinetic studies with a suitable wash-out period between successive dosings.
The animals were fasted for approximately 18 hours before dosing and from 0 to 4 hours after dosing, but had adlibitum access to water during the whole period.
Intravenous injections (the volume corresponding to usually 1.5-2 nmol/kg, for example 0.1 mL/kg) of the triple agonists were given through one catheter, and blood was sampled at predefined time points for up to 14 days post dosing (preferably through the other catheter). Blood samples (for example 0.8 mL) were collected in 8 mM EDTA buffer and then centrifuged at 4° C. and 1942 g for 10 minutes.
Plasma was pipetted into Micronic tubes on dry ice and kept at −20° C. until analysed for plasma concentration of the triple agonists using ELISA, or a similar antibody-based assay, or LCMS. Individual plasma concentration-time profiles were analysed by a non-compartmental model in Phoenix WinNonLin ver. 6.4. (Pharsight Inc., Mountain View, CA, USA), and the resulting terminal half-lives (harmonic mean) determined.

CC[C@H](C)[C@H](NC(=O)[C@H](CO)NC(=O)[C@H](Cc1ccc(O)cc1)NC(=O)[C@H](CC(=O)O)NC(=O)[C@H](CO)NC(=O)[C@@H](NC(=O)[C@H](Cc1ccccc1)NC(=O)[C@@H](NC(=O)CNC(=O)[C@H](CCC(N)=O)NC(=O)C(C)(C)NC(=O)[C@@H](N)Cc1ccc(O)cc1)[C@@H](C)O)[C@@H](C)O)C(=O)N[C@@H](Cc1ccc(O)cc1)C(=O)N[C@@H](CC(C)C)C(=O)N[C@@H](CC(=O)O)C(=O)N[C@@H](CCCCN)C(=O)N[C@@H](CCCCNC(=O)COCCOCCNC(=O)COCCOCCNC(=O)CC[C@H](NC(=O)CCCCCCCCCCCCCCCCCCC(=O)O)C(=O)O)C(=O)N[C@@H](C)C(=O)N[C@@H](C)C(=O)NC(C)(C)C(=O)N[C@@H](CCC(=O)O)C(=O)N[C@@H](Cc1ccccc1)C(=O)N[C@H](C(=O)N[C@@H](CC(N)=O)C(=O)N[C@@H](Cc1c[nH]c2ccccc12)C(=O)N[C@@H](CC(C)C)C(=O)N[C@@H](CC(C)C)C(=O)N[C@@H](C)C(=O)NCC(=O)NCC(=O)N1CCC[C@H]1C(=O)N[C@@H](CO)C(=O)N[C@@H](CO)C(=O)NCC(=O)N[C@@H](C)C(=O)N1CCC[C@H]1C(=O)N1CCC[C@H]1C(=O)N1CCC[C@H]1C(=O)N[C@@H](CO)C(N)=O)C(C)C [Compound No. 9] (H-Y[Aib]QGTFTSDYSIYLDKK([AEEA-AEEA-γGlu-C20 diacid])AA[Aib]EFVNWLLAGGPSSGAPPPS-NH2)
EC50 [1]: 4.4 pM | half-life [2]: 103 h

CC(C)C[C@H](NC(=O)[C@H](CC(C)C)NC(=O)[C@H](Cc1c[nH]c2ccccc12)NC(=O)[C@H](CCC(N)=O)NC(=O)[C@@H](NC(=O)[C@H](Cc1ccccc1)NC(=O)[C@H](CCC(=O)O)NC(=O)C(C)(C)NC(=O)[C@H](C)NC(=O)[C@H](C)NC(=O)[C@H](CCCCN)NC(=O)[C@H](CCCCNC(=O)[C@@H](N)CCCCNC(=O)[C@@H](N)CCCCNC(=O)CC[C@H](NC(=O)CCCCCCCCCCCCCCCCCCC(=O)O)C(=O)O)NC(=O)[C@H](CCC(=O)O)NC(=O)[C@H](CC(C)C)NC(=O)[C@H](Cc1ccc(O)cc1)NC(=O)[C@H](Cc1ccc(O)cc1)NC(=O)[C@H](CO)NC(=O)[C@H](Cc1ccc(O)cc1)NC(=O)[C@H](CC(=O)O)NC(=O)[C@H](CO)NC(=O)[C@@H](NC(=O)[C@H](Cc1ccccc1)NC(=O)[C@@H](NC(=O)CNC(=O)[C@H](Cc1c[nH]cn1)NC(=O)C(C)(C)NC(=O)[C@@H](N)Cc1c[nH]cn1)[C@@H](C)O)[C@@H](C)O)C(C)C)C(=O)N[C@@H](CCC(=O)O)C(=O)NCC(=O)NCC(=O)N1CCC[C@H]1C(=O)N[C@@H](CO)C(=O)N[C@@H](CO)C(=O)NCC(=O)N[C@@H](C)C(=O)N1CCC[C@H]1C(=O)N1CCC[C@H]1C(=O)N1CCC[C@H]1C(=O)N[C@@H](CO)C(N)=O [Compound No. 31] (H-H[Aib]HGTFTSDYSYYLEK([εLys-εLys-γGlu-C20 diacid])KAA[Aib]EFVQWLLEGGPSSGAPPPS-NH2; N-terminus assumed)
EC50 [1]: 3 pM | half-life [2]: 55 h

CC[C@H](C)[C@H](NC(=O)[C@H](CO)NC(=O)[C@H](Cc1ccc(O)cc1)NC(=O)[C@H](CC(=O)O)NC(=O)[C@H](CO)NC(=O)[C@@H](NC(=O)[C@H](Cc1ccccc1)NC(=O)[C@@H](NC(=O)CNC(=O)[C@H](Cc1c[nH]cn1)NC(=O)C(C)(C)NC(=O)[C@@H](N)Cc1c[nH]cn1)[C@@H](C)O)[C@@H](C)O)C(=O)N[C@@H](Cc1ccc(O)cc1)C(=O)N[C@@H](CC(C)C)C(=O)N[C@@H](CCC(=O)O)C(=O)N[C@@H](CCCCNC(=O)COCCOCCNC(=O)COCCOCCNC(=O)CC[C@H](NC(=O)CCCCCCCCCCCCCCCCCCC(=O)O)C(=O)O)C(=O)N[C@@H](CCCCN)C(=O)N[C@@H](Cc1ccc(O)cc1)C(=O)N[C@@H](C)C(=O)NC(C)(C)C(=O)N[C@@H](CCC(=O)O)C(=O)N[C@@H](Cc1ccccc1)C(=O)N[C@H](C(=O)N[C@@H](CCC(N)=O)C(=O)N[C@@H](Cc1c[nH]c2ccccc12)C(=O)N[C@@H](CC(C)C)C(=O)N[C@@H](CC(C)C)C(=O)N[C@@H](CCC(=O)O)C(=O)NCC(=O)NCC(=O)N1CCC[C@H]1C(=O)N[C@@H](CO)C(=O)N[C@@H](CO)C(=O)NCC(=O)N[C@@H](C)C(=O)N1CCC[C@H]1C(=O)N1CCC[C@H]1C(=O)N1CCC[C@H]1C(=O)N[C@@H](CO)C(N)=O)C(C)C [Compound No. 39] (H-H[Aib]HGTFTSDYSIYLEK([AEEA-AEEA-γGlu-C20 diacid])KYA[Aib]EFVQWLLEGGPSSGAPPPS-NH2)
EC50 [1]: 4.4 pM | half-life [2]: 66 h

CC(C)C[C@H](NC(=O)[C@H](CC(C)C)NC(=O)[C@H](Cc1c[nH]c2ccccc12)NC(=O)[C@H](CCC(N)=O)NC(=O)[C@@H](NC(=O)[C@H](Cc1ccccc1)NC(=O)[C@H](CCC(=O)O)NC(=O)C(C)(C)NC(=O)[C@H](C)NC(=O)[C@H](C)NC(=O)[C@H](CCC(N)=O)NC(=O)[C@H](CCCCNC(=O)[C@@H](N)CCCCNC(=O)[C@@H](N)CCCCNC(=O)CC[C@H](NC(=O)CCCCCCCCCCCCCCCCCCC(=O)O)C(=O)O)NC(=O)[C@H](CCC(=O)O)NC(=O)[C@H](CC(C)C)NC(=O)[C@H](CC(C)C)NC(=O)[C@H](Cc1ccc(O)cc1)NC(=O)[C@H](CO)NC(=O)[C@H](Cc1ccc(O)cc1)NC(=O)[C@H](CC(=O)O)NC(=O)[C@H](CO)NC(=O)[C@@H](NC(=O)[C@H](Cc1ccccc1)NC(=O)[C@@H](NC(=O)CNC(=O)[C@H](Cc1c[nH]cn1)NC(=O)C(C)(C)NC(=O)[C@@H](N)Cc1c[nH]cn1)[C@@H](C)O)[C@@H](C)O)C(C)C)C(=O)N[C@@H](CCC(=O)O)C(=O)NCC(=O)NCC(=O)N1CCC[C@H]1C(=O)N[C@@H](CO)C(=O)N[C@@H](CO)C(=O)NCC(=O)N[C@@H](C)C(=O)N1CCC[C@H]1C(=O)N1CCC[C@H]1C(=O)N1CCC[C@H]1C(=O)N[C@@H](CO)C(N)=O [Compound No. 42] (H-H[Aib]HGTFTSDYSYLLEK([εLys-εLys-γGlu-C20 diacid])QAA[Aib]EFVQWLLEGGPSSGAPPPS-NH2; N-terminus assumed)
half-life [2]: 66 h
